Laboratory results reported in PubChem BioAssay AID1199 (EPA DSSTox, 2008).
Activity calls are given as the source filed them.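 Rule for the calls: active = a tumour-causing dose and a tumour site recorded for mice in at least one sex group; inconclusive = only government mouse studies exist and were judged inadequate; inactive = mouse studies exist but none gave tumours.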

System: mouse carcinogenicity bioassay, TD50 from CPDB
Test: DSSTox (CPDBAS) Carcinogenic Potency Database Summary Mouse Bioassay Results
Procedure, shortened: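 Chronic long-term mouse cancer bioassays from literature and NCI/NTP, compiled per sex. TD50 is the standardized carcinogenic potency, using the most positive experiment per sex-species; target sites follow author opinion.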

[1] = TD50_Mouse_Note: no positive results, TargetSites_Mouse_Female: no positive results
[2] = TD50_Mouse_Note: TD50 is harmonic mean of more than one positive test, TargetSites_Mouse_Female: lung, vascular system
[3] = TD50_Mouse_Note: TD50 is harmonic mean of more than one positive test, TargetSites_Mouse_Female: liver
[4] = TD50_Mouse_Note: TD50 is harmonic mean of more than one positive test, TargetSites_Mouse_Female: lung

In the case of O=C1C(Cl)=C(Cl)C(=O)c2ccccc21, the outcome [1] is reported as “inactive; no positive results”.

Work on CC(=O)NNc1ccc(CO)cc1 yielded a Potency [2] of 1.34 mmol/kg/day.

O=C1NC(=O)C(c2ccccc2)(c2ccccc2)N1 was tested, and the Potency (TargetSites_Mouse_Female: liver) was 0.234 mmol/kg/day.

In the case of CCCCC(CC)COC(=O)COc1ccc(Cl)cc1Cl (configuration not stated), the outcome [1] is reported as “inactive; no positive results”.

With CC(=O)OC1CC(C)OC(C)O1 (configuration not stated) the outcome [1] was “inactive; no positive results”.

Compound CC(C)C/C=N/N(C)C=O has a Potency (TD50_Mouse_Note: TD50 is harmonic mean of more than one positive test, TargetSites_Mouse_Female: gall bladder, liver, lung) of 0.0157 mmol/kg/day.

Compound CCOc1ccc(NC(C)=O)cc1N has a Potency (TargetSites_Mouse_Female: no positive results) of 10.7 mmol/kg/day.

O=C(O)CCl was tested, and the outcome [1] was “inactive; no positive results”.

With C=COC(N)=O the Potency (TD50_Mouse_Note: positive test results only by intraperitoneal or intravenous injection, TD50 is harmonic mean of more than one positive, TargetSites_Mouse_Female: liver, vascular system) was 0.00142 mmol/kg/day.

In the case of O=S(=O)(O)c1ccc(N=Nc2cc(S(=O)(=O)O)c3ccccc3c2O)c2ccccc12, the outcome [1] is reported as “inactive; no positive results”.

Work on C=CCOC(=O)CC(C)C yielded a Potency (TargetSites_Mouse_Female: hematopoietic system) of 0.442 mmol/kg/day.

With CCCCNC(N)=O the outcome [1] was “inactive; no positive results”.

For COP(=S)(OC)SCn1nnc2ccccc2c1=O, the outcome [1] was “inactive; no positive results”.

Work on CC(Cl)CCl (configuration not stated) yielded a Potency [3] of 2.44 mmol/kg/day.

With Cc1cc(OC(=O)N(C)C)n(C(C)C)n1 the outcome [1] was “inactive; no positive results”.

Cc1ccc2c(c1[N+](=O)[O-])C(=O)c1ccccc1C2=O showed a Potency (TD50_Mouse_Note: TD50 is harmonic mean of more than one positive test, TargetSites_Mouse_Female: vascular system) of 0.00584 mmol/kg/day.

With CCOP(=S)(OCC)SC1OCCOC1SP(=S)(OCC)OCC (configuration not stated) the outcome [1] was “inactive; no positive results”.

ClCc1ccccn1 was tested, and the outcome [1] was “inactive; no positive results”.

In the case of C/C=C/c1ccc2c(c1)OCO2, the outcome [1] is reported as “inactive; no positive results”.

In the case of COc1cc2c(c3oc(=O)c4c(c13)CCOC4=O)C1C=COC1O2 (configuration not stated), the outcome (TD50_Mouse_Note: TD50_Mouse_mmol was not calculated for this mixture, but Activiity Score is assigned value of 50 to indicate active) is reported as “active; hematopoietic system”.

For Cc1ccc(N)c(C)c1, the Potency (TargetSites_Mouse_Female: lung) was 0.0787 mmol/kg/day.

In the case of CNC[C@H](O)c1cccc(O)c1, the outcome [1] is reported as “inactive; no positive results”.

CC(=O)NNC(=O)c1ccncc1 was tested, and the Potency [4] was 1.84 mmol/kg/day.

Compound Clc1c(Cl)c(Cl)c(Cl)c(Cl)c1Cl has a Potency [3] of 0.229 mmol/kg/day.

Work on O=P(OCCCl)(OCCCl)OCCCl yielded a Potency (TD50_Mouse_Note: TD50 is harmonic mean of more than one positive test, TargetSites_Mouse_Female: hematopoietic system, stomach) of 3.39 mmol/kg/day.

In the case of c1ccc2[nH]c(-c3cscn3)nc2c1, the outcome [1] is reported as “inactive; no positive results”.

In the case of O=[N+]([O-])c1cc([As](=O)(O)O)ccc1O, the outcome [1] is reported as “inactive; no positive results”.

O=[Se]=O was tested, and the outcome (TD50_Mouse_Note: no positive results) was “inactive”.

Nc1ccc(Cl)cc1N showed a Potency [3] of 9.4 mmol/kg/day.

Compound CN(C)/N=N/c1nc[nH]c1C(N)=O has a Potency (TD50_Mouse_Note: positive test results only by intraperitoneal or intravenous injection, TD50 is harmonic mean of more than one positive, TargetSites_Mouse_Female: hematopoietic system, lung, uterus, vascular system) of 0.0053 mmol/kg/day.

With CN[C@H]1CC[C@@H](c2ccc(Cl)c(Cl)c2)c2ccccc21 the outcome [1] was “inactive; no positive results”.

With CCCc1ccc2c(c1)OCO2 the Potency [4] was 0.761 mmol/kg/day.

With CC(O)CN(C)c1ccc(NN)nn1 (configuration not stated) the outcome [1] was “inactive; no positive results”.

With NCCNc1cccc2ccccc12 the outcome [1] was “inactive; no positive results”.

In the case of C=CCNN, the Potency [2] is reported as 0.315 mmol/kg/day.

Oc1c(Cl)cc(Cl)c(Cl)c1Cc1c(O)c(Cl)cc(Cl)c1Cl was tested, and the outcome [1] was “inactive; no positive results”.

In the case of CCCCOC(=O)c1ccc(O)cc1, the outcome [1] is reported as “inactive; no positive results”.

For CNC(=O)Oc1cc(C)c(N(C)C)c(C)c1, the outcome [1] was “inactive; no positive results”.

ClC(Cl)(Cl)c1ccccc1 gave a Potency (TargetSites_Mouse_Female: hematopoietic system, lung, stomach) of 0.00203 mmol/kg/day.

With ClC1=C(Cl)[C@]2(Cl)[C@@H]3[C@H]4C=CC(C4)[C@@H]3C1(Cl)C2(Cl)Cl the Potency (TD50_Mouse_Note: TD50 is harmonic mean of more than one positive test, TargetSites_Mouse_BothSexes: liver) was 0.00348 mmol/kg/day.

In the case of O=C(c1ccccc1)C(O)c1ccccc1 (configuration not stated), the outcome [1] is reported as “inactive; no positive results”.

For COP(=O)(OC)OC, the Potency (TargetSites_Mouse_Female: uterus) was 2.39 mmol/kg/day.

In the case of CC(CN1c2ccccc2Sc2ccccc21)N(C)C (configuration not stated), the outcome [1] is reported as “inactive; no positive results”.

With Oc1c(Cl)cc(Cl)cc1Sc1cc(Cl)cc(Cl)c1O the outcome [1] was “inactive; no positive results”.

For Cc1cc(N=Nc2c(O)ccc3ccccc23)c(S(=O)(=O)O)cc1Cl, the outcome [1] was “inactive; no positive results”.

For OCc1ccccc1, the outcome [1] was “inactive; no positive results”.

Cl[C@H]1OCCO[C@@H]1Cl was tested, and the outcome [1] was “inactive”.

For NC(=O)NNc1ccccc1, the Potency [4] was 1.09 mmol/kg/day.

In the case of C=Cc1ccc(C)cc1, the outcome [1] is reported as “inactive; no positive results”.

In the case of CNc1ncnc2c1ncn2[C@@H]1O[C@H](CO)[C@@H](O)[C@H]1O, the outcome [1] is reported as “inactive; no positive results”.

O=[N+]([O-])c1ccccc1 was tested, and the Potency (TD50_Mouse_Note: TD50 is harmonic mean of more than one positive test, TargetSites_Mouse_Female: liver, mammary gland) was 2.4 mmol/kg/day.

With CC1(C)[C@H](C(=O)O[C@H](C#N)c2cccc(Oc3ccccc3)c2)[C@@H]1C=C(Br)Br the outcome [1] was “inactive; no positive results”.
